We go through three compounds from patent US9486440B2, “Uses of indole-ketones or indolidones as neuro-protective drugs” (UNIVERSITY OF MACAU, priority 2011, dated 2016).

Entries after “also recorded” stand apart in the source; their conditions may differ.

For series [1], the system named is zebrafish larvae. The experiment in a line: Locomotion behavioral test of zebrafish larvae. The class given is in vivo. The settings on record: for MPTP-induced deficit of swimming behavior (total distance travelled): 200 μM MPTP 2 days, then 10 μM MPTP plus drug 3 days, L-deprenyl 20 μM, L-dopa 150 μM. How it is done: (§1) Wild-type zebrafish (AB strain) and Tg (fli-1:EGFP) transgenic zebrafish were maintained as described in the Zebrafish Handbook (Westerfield, 1993). Zebrafish embryos were generated by natural pair-wise mating (3-12 months old) and raised at 28.5° C. in embryo medium (13.7 mM NaCl, 540 μM KCl, pH 7.4, 25 μM Na2HPO4, 44 μM KH2PO4, 300 μM CaCl2, 100 μM MgSO4, 420 μM NaHCO3, pH 7.4). […] An equal concentration of DMSO in embryo medium was used as vehicle control in each experiment.
Thus the MPTP exposure needs to last 5 day from 1 dpf. […] Thus subsequent locomotion behavioral studies were done with 200 μM MPTP for treatment for 2 days at 1 dpf then replacing insult with 10 μM MPTP for incubation for another 3 days.
(§2) After drug treatment, zebrafish larvae at 6 dpf were transferred into 96-well plates (1 fish/well and 12 larvae/group). Fishes responded with excessive stress reaction (such as rapid and disorganized swimming or immobility for 2 min) due to the handling and monitoring of the behavior were discarded. The experiments were performed in a calm enclosed area. The larvae were allowed to habituate to the new environment for 30 min prior to experiments. Behavior was monitored by an automated video tracking system (Viewpoint, ZebraLab, LifeSciences). The 96-well plates and camera were housed inside a Zebrabox and the swimming pattern of each fish was recorded for 10 min and repeated 3 times, once every other 10 min. The total distance moved was defined as the distance (in cm) that the fish had moved during one session (10 min).
Normally as late as 3 dpf, zebrafish larvae show very little spontaneous swimming, but by 5 dpf they spontaneously swim longer distances and independently search for food. The MPTP exposure therefore needs to last 5 days from 1 dpf. […] Thus subsequent locomotion behavioral studies were performed with 200 μM MPTP for 2-day treatment at 1 dpf then replacing with media containing 10 μM MPTP for another 3-day incubation.
as §2, with “The larvae were discarded due to” for “Fishes responded with”, “reaction to the handling and monitoring of behavior” for “reaction”, “min).” for “min) due to the handling and monitoring of the behavior were discarded.”, “sealed” for “enclosed”, “min. Swimming behavior” for “min prior to experiments. Behavior”, “for” for “repeated”

In series [2] the target is nNOS (Homo sapiens, UniProt P29475). Nature of the series: In vitro NOS activity assay, nNOS. The class given is biochemical. More on the design: purchased Alexis Biochemicals (Lausen, Switzerland). Particulars: for inhibition of recombinant human nNOS: PTK787/ZK222584 up to 1 mM. How it is done: In the in vitro NOS activity assay (Li et al., 2007), purified recombinant human nNOS, endothelial NOS (eNOS), and inducible NOS (iNOS) were bought from Alexis Biochemicals (Lausen, Switzerland). NOS activity was determined by monitoring the conversion of L-[3H]arginine to [3H]citrulline following the instructions provided in the kit (Calbiochem, USA). The reaction mixture contained a final volume of 40 μl with 25 mM Tris-Cl at pH 7.4, 3 μM tetrahydrobiopterin, 1 μM FAD, 1 μM FMN, 1 mM NADPH, 0.6 mM CaCl2, 0.1 μM calmodulin, 2.5 μg of pure NOS enzyme, 5 μl L-[3H]arginine (Perkin Elmer, Waltham, Mass., USA), and different concentrations of the tested reagents. The reaction mixture was incubated at 22° C. for 45 min. The reaction was quenched by adding 400 μl of stopping buffer (50 mM HEPES, pH 5.5, and 5 mM EDTA) for nNOS and eNOS reactions or by heating reactive tubes for iNOS. Unreacted L-[3H]arginine was then trapped by 100 μl of equilibrated resin provided in a spin cup followed by centrifugation for 30 s at 13,200 rpm. The filtrate was quantified by liquid scintillation counting.

Series [3] relates to CGNs. Nature of the series: FDA/PI double staining of CGNs after MPP+. The settings on record: 20 μM, 35 μM MPP+. It is filed as cell-based, rat. The procedure:
Viable granule neurons were stained with fluorescein formed from fluorescein diacetate (FDA), which is de-esterified only by living cells. Propidium iodide (PI) can penetrate cell membranes of dead cells to intercalate into double-stranded nucleic acids. Briefly, after incubation with 10 μg/ml FDA and 5 μg/ml PI for 15 min, the neurons were examined and photographed using UV light microscopy; and the pictures were compared with those photographed under phase contrast microscopy.
Viable granule neurons were stained with fluorescein formed from fluorescein diacetate (FDA) by esterase in viable cells. Propidium iodide (PI) can penetrate cell membranes of dead cells to intercalate into double-stranded nucleic acids. Briefly, after incubation with 10 μg/ml of FDA and 5 μg/ml of PI for 15 min, the neurons were examined and images were acquired using UV light microscopy for comparison with photos taken under phase contrast microscopy.

For series [4], the system named is DA neurons in the zebrafish brain. Nature of the series: MPTP zebrafish, whole-mount immunostaining against tyrosine hydroxylase. It is filed as in vivo. The settings on record: 200 μM MPTP, 2 days from 1 dpf; SU4312 3-30 μM, PTK787/ZK222584 0.3-3 μM, SU5416 0.1-1 μM, VRI 0.03-0.3 μM. How it is done:
as §1

For `Clc1ccc(Nc2nnc(Cc3ccncc3)c3ccccc23)cc1` [PTK787/ZK222584], the “MPTP-induced deficit of swimming behavior (total distance travelled)” value (“MPTP-induced deficit” below) in series [1] was “but not PTK787/ZK222584 ameliorated MPTP-induced deficit of swimming behavior”. In addition, in series [1] (zebrafish, in vivo), the “swimming behavior of normal zebrafish larvae, drug alone” value is on record as “Neither SU4312 nor PTK787/ZK222584 treatment alone notably altered the swimming behavior”. The “inhibition of recombinant human nNOS” value in series [2] is recorded as “did not inhibit any of the isoforms even at 1 mM”.
Broadly, the Ki is a dissociation constant, usually derived from enzyme kinetics or from competition with a known ligand. Take `CN(C)c1ccc(C=C2C(=O)Nc3ccccc32)cc1` [SU4312, 3-[4-(dimethylamino)benzylidenyl]indolin-2-one]: the “loss of neurons and morphological alterations (FDA/PI, phase contrast)” value in series [3] was “significantly blocked MPP^+-induced loss of neurons and reversed MPP^+-induced morphological alterations”. Besides, the “MPTP-induced deficit” value in series [1] was “ameliorated MPTP-induced deficit of swimming behavior”. The “swimming behavior of normal zebrafish larvae, drug alone” value in series [1] (without MPTP) is reported as “Neither SU4312 nor PTK787/ZK222584 treatment alone notably altered the swimming behavior”. Also, the “MPTP-induced loss of DA neurons / decrease of TH+ region area” value in series [4] is recorded as “significantly alleviated the loss of DA neurons”. Besides, in series [2] (10 and 20 μM SU4312, 5 to 40 μM L-[3H]arginine, Lineweaver-Burk, read-out: Ki value of nNOS inhibition), the inhibition constant Ki was found to be 12.7 µM. Also, in series [2] (Lineweaver-Burk plots), the “mode of nNOS inhibition” value is “inhibited nNOS in a non-competitive manner; also recorded: did not alter Km but increased the appeared 1/Vmax”. In addition, in series [2], the “inhibition of recombinant human nNOS” value is “directly and selectively inhibit recombinant human nNOS relative to iNOS”.
`Cc1cc(C)c(/C=C2\C(=O)Nc3ccccc32)[nH]1` [SU5416, (3Z)-3-[(3,5-dimethyl-1H-pyrrol-2-yl)methylidene]-1,3-dihydro-2H-indol-2-one]: the “loss of neurons and morphological alterations (FDA/PI, phase contrast)” value in series [3] was “significantly blocked the loss of neurons and reversed the morphological alteration”. Also, in series [1], the “MPTP-induced deficit” value is reported as “ameliorated the MPTP-induced deficit of swimming behavior”. Besides, the “MPTP-induced loss of DA neurons / decrease of TH+ region area” value in series [4] is recorded as “significantly prevented the decrease in the area of TH^+ region induced by MPTP”.
